# Measured values as given in article PMC5527824 (Frontiers in bioscience (Scholar edition), 2015).
# Where “and” joins values, the source holds several entries; their conditions need not be identical. Equal entries are not always repeated. Where two headings read alike, the source gives them in different places.
# Columns and labels:
# 5-LOX = details: stimulated peritoneal leukocytes; cited from earlier work
# tMCAO in mice [1] = details: cited from earlier work
# [2] = 0.05% in diet for 9 months (~25 mg/kg bw), vs control; cited from earlier work
# [3] = test system: rodent model of depression; details: oral administration; cited from earlier work
# [4] = test system: APPswe/PS1dE9 double transgenic AD mice; details: AD mice 12 months of age, 0.05% in food; cited from earlier work
# [5] = test system: NF-κB coactivator CBP/p300; details: human monocytes; cited from earlier work
# [6] = target: 5-LOX from human peripheral blood mononuclear leukocytes (PBML) (Homo sapiens, UniProt P09917); assay: 5-LOX inhibition; format: biochemical; details: Fisetin IC50, 5-LOX
# Sequence of 5-LOX from human peripheral blood mononuclear leukocytes (PBML) (P09917 whole entry): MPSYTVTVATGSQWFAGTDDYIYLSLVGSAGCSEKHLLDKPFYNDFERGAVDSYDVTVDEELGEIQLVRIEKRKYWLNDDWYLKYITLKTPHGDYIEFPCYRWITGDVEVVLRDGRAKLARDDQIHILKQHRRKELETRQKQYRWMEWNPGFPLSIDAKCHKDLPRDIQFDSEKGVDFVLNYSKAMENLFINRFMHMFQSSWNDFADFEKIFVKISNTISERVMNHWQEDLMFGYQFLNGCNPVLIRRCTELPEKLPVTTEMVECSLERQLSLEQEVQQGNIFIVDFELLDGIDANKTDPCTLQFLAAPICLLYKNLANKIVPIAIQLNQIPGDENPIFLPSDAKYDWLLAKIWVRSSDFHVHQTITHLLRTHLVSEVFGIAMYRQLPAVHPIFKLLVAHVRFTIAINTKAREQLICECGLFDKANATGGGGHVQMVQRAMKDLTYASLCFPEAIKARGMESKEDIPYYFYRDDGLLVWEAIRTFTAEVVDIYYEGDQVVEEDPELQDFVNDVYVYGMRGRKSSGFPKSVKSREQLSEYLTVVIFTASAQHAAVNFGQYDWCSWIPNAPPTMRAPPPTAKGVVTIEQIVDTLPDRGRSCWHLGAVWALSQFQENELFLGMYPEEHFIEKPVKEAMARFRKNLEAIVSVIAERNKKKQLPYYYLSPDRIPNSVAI
# Akita mice [7] = details: cited from earlier work
# [8] = rats, intravenous and oral administration; cited from earlier work
# [9] = test system: mouse N9 microglial cells; details: cited from earlier work
# Akita mice [10] = assay: Ins2^Akita mouse model of type 1 diabetes; format: in vivo; details: 0.05% in diet for 18 weeks
# [11] = test system: aluminum chloride toxicity in mice; details: oral 15 mg/kg bw; cited from earlier work
# PC12 cells = details: of ~30 flavonoids tested; cited from earlier work
# ATF4 = details: basal half-life ~10 min; cited from earlier work
# hERG = hERG (Homo sapiens, UniProt Q12809); assay: hERG activity; details: at concentrations up to 10 μM, the highest concentration tested; unpublished results
# Sequence of hERG (Q12809 whole entry): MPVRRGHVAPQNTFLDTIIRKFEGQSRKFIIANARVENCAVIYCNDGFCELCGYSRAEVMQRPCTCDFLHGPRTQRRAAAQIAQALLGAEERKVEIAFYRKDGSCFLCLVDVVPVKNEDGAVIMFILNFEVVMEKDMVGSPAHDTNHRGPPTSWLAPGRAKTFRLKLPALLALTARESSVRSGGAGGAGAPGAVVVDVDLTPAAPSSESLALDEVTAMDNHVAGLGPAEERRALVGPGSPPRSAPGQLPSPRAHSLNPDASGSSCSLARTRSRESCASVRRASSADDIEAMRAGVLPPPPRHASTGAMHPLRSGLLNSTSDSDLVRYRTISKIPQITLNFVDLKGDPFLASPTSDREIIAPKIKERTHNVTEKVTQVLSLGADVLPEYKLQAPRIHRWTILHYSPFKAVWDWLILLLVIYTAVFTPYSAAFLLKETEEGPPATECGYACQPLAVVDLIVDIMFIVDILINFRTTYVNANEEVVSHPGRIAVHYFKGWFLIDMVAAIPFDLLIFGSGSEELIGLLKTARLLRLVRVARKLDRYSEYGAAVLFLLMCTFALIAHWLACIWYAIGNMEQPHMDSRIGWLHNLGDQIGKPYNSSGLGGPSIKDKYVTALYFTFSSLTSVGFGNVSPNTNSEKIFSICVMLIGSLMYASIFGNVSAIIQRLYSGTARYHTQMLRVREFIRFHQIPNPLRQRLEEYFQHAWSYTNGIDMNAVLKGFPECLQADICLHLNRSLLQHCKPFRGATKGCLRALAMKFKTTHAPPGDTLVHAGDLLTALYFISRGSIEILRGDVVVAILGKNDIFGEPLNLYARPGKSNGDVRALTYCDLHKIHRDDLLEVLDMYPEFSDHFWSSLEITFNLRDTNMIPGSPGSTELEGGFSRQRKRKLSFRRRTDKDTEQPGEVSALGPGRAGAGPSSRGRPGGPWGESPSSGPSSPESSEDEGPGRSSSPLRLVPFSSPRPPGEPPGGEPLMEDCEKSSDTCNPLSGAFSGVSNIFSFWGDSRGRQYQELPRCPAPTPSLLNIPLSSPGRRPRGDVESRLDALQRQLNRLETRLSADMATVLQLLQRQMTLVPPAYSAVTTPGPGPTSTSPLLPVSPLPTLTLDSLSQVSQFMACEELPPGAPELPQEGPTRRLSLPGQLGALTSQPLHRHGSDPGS
# [12] = target: 15-LOX from rabbit reticulocytes (Oryctolagus cuniculus, UniProt P12530); assay: 15-LOX inhibition; details: Fisetin IC50, 15-LOX
# Sequence of 15-LOX from rabbit reticulocytes (P12530 whole entry): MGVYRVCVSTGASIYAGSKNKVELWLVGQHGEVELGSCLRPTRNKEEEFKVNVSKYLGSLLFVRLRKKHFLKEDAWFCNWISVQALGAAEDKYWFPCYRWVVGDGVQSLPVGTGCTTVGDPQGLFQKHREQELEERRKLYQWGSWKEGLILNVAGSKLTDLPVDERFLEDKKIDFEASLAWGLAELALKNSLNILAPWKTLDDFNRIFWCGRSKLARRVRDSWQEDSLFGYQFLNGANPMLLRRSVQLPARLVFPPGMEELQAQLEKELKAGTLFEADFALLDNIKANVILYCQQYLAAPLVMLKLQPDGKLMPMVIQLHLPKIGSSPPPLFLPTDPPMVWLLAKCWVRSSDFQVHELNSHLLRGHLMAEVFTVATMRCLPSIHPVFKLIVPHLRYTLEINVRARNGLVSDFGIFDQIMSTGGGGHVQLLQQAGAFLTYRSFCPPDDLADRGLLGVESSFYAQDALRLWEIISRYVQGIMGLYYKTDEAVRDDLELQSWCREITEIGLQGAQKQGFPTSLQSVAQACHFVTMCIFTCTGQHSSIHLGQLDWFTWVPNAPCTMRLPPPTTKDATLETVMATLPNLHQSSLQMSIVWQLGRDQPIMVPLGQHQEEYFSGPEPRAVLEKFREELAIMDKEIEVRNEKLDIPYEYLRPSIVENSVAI
# [13] = pharmacokinetics in mice, oral; format: in vivo, mouse; details: oral 50 mg/kg bw, unpublished results
# nerve cell = details: of ~30 flavonoids tested; cited from earlier work
# HT22 cells = details: cited from earlier work
# COX1 (Human platelets) = COX1 (Human platelets) (Homo sapiens, UniProt P23219); assay: COX1 inhibition; format: biochemical
# Sequence of COX1 (Human platelets) (P23219 24-599): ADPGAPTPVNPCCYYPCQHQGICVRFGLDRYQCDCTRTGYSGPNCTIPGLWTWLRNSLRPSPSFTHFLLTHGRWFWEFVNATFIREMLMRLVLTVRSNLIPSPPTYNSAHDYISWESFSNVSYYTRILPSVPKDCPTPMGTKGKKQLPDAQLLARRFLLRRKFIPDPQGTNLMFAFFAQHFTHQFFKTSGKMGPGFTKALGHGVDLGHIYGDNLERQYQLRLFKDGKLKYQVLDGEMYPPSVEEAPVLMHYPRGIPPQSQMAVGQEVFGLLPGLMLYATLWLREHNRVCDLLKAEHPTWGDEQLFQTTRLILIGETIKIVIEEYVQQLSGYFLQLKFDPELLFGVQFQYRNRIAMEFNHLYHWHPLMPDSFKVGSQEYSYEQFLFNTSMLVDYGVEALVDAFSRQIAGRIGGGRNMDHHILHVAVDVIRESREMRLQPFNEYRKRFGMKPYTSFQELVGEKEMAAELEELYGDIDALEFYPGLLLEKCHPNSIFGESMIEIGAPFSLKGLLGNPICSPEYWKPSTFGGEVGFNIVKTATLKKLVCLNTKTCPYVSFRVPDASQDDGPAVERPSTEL
# cytochrome P450 2C9 = cytochrome P450 2C9 (Homo sapiens, UniProt P11712); assay: cytochrome P450 2C9 inhibition; format: in vitro ADME; details: at concentrations up to 10 μM; unpublished results
# Sequence of cytochrome P450 2C9 (P11712 whole entry): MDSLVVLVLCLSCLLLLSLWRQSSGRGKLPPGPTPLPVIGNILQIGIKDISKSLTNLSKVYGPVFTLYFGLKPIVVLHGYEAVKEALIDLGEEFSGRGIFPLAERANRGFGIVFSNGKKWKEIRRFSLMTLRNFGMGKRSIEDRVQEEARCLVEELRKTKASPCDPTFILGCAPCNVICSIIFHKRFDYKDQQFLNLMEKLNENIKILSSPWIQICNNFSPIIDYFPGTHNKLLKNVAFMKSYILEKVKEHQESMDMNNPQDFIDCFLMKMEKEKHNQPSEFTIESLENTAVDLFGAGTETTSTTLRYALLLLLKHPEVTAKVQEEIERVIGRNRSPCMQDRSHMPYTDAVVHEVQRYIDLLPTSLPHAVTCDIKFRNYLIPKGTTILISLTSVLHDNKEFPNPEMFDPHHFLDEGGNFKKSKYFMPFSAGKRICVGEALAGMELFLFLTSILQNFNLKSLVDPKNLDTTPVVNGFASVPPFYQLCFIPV
# tMCAO in mice [14] = details: cited from earlier work; for intracellular TNF-α production in macrophages / TNF-α–producing microglia: brain
# monoamine oxidase A = details: stated as possible mechanism; cited from earlier work
# 12-LOX = details: fish gill; cited from earlier work
# [15] = mouse, intravenous 223 mg/kg bw; cited from earlier work
# [16] = test system: mouse hippocampal HT22 cells; details: cited from earlier work
# [17] = test system: BV-2 microglial cell line; details: BV-2 cells; cited from earlier work
# proteasome = details: cited from earlier work
# PC12/Htt^Q103 cells = details: 10 μM, 24 hr after induction of Httex1-103QP; cited from earlier work
# 15-LOX = details: rabbit reticulocytes; cited from earlier work
# [18] = test tube assays; cited from earlier work
# liver microsomes = details: ferrous sulfate/ascorbate; cited from earlier work
# [19] = test system: mouse HT22 hippocampal nerve cell line; details: read-out: EC50, protection from IAA-induced death; HT22 cells; cited from earlier work
# cytochrome P450 3A4 = cytochrome P450 3A4 (Homo sapiens, UniProt P08684); assay: cytochrome P450 3A4 inhibition; format: in vitro ADME; details: at concentrations up to 10 μM; unpublished results
# Sequence of cytochrome P450 3A4 (P08684 whole entry): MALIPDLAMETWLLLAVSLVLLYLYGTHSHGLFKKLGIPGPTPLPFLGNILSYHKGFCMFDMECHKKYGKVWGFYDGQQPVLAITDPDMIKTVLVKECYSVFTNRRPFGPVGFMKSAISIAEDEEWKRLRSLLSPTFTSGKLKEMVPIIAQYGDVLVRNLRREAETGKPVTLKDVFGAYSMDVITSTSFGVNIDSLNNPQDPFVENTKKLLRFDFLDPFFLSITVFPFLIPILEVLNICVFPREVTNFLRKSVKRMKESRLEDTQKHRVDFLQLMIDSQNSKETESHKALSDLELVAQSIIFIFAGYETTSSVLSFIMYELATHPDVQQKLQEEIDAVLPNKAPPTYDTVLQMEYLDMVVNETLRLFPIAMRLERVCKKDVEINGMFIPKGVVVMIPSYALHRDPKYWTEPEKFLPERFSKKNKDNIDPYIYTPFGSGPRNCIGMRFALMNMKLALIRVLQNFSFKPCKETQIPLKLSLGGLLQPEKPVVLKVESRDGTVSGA
# [20] = test system: rodent model of depression; details: oral administration; cited from earlier work; remark: listed apart in the source
# COX2 (Human recombinant) = COX2 (Human recombinant) (Homo sapiens, UniProt P35354); assay: COX2 inhibition; format: biochemical
# Sequence of COX2 (Human recombinant) (P35354 18-604): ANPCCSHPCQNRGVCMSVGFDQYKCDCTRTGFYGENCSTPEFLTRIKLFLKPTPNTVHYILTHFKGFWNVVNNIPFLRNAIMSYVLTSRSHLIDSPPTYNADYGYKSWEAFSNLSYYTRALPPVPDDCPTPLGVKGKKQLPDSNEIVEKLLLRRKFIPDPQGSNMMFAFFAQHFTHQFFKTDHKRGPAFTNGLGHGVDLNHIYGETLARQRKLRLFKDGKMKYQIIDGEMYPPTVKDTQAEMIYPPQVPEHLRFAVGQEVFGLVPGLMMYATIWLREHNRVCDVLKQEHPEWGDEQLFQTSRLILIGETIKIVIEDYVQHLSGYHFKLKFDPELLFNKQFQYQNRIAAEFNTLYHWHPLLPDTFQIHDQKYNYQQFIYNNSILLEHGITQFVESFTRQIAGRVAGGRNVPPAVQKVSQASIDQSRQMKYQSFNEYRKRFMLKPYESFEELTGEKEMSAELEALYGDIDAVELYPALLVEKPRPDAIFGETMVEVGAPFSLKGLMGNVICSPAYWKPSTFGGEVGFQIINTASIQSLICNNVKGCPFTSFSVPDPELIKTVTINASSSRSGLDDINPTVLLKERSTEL
# [21] = test system: human lung adenocarcinoma cell line H1299; details: H1299 cells; cited from earlier work
# RAW264.7 macrophages = details: RAW264.7, via increased MKP-1 levels; cited from earlier work
smiles,measurement,setting,value
"O=c1c(O)c(-c2ccc(O)c(O)c2)oc2cc(O)ccc12 [fisetin, 3,3′,4′,7-tetrahydroxyflavone]",inhibition of 5-LOX activity,5-LOX,effective inhibitor
same,infarct size,"tMCAO in mice [1]; 25 mg/kg i.p. 20 min before onset of ischemia, placebo 56 μl",49 µL
same,infarct size,"tMCAO in mice [1]; 50 mg/kg i.p. 20 min before onset of ischemia, placebo 56 μl",30 µL
same,infarct size,"tMCAO in mice [1]; 50 mg/kg i.p. three hours after onset of ischemia, placebo 42 μl",27 µL
same,Ames test,Ames test,negative
same,body weights,[2],No significant differences
same,most effective dose at reducing immobility time,[3],20 mg/kg bw
same,time in the open arms (disinhibition),[4],reversed
same,activity of CBP/p300,[5],suppress
same,IC50,[6],585 nM and 580 nM
same,elevated blood glucose and HbA1c,"Akita mice [7]; 0.05% in food (25–40 mg/kg bw daily), 6 to 24 weeks",not affected
same,"open field test, distance traveled and time ambulatory (anxiety-related symptoms)",Akita mice [7]; 0.05% in food,restored to near normal values
same,weight loss,Akita mice [7]; 0.05% in food,not altered
same,t1/2 of free fisetin in serum,[8],2.7 min
same,reduction of iNOS expression,"[9]; 10 μM, following LPS stimulation (p<0.001)",91%
same,"IκB, JNK and c-Jun phosphorylation",[9]; LPS-stimulated murine microglia,significantly reduced
same,LPS-induced nitric oxide and TNF-α production,"[9]; N9 cells, vs placebo",significant inhibition
same,decrease in motor nerve conduction velocity,Akita mice [10],ameliorated
same,increase in hind paw thermal latency,Akita mice [10],prevented
same,loss of total GSH from cortex and hippocampus,[11],greatly reduce the loss of total GSH
same,differentiation of PC12 cells (neurotrophic activity),PC12 cells,promoting the differentiation of PC12 cells
same,increase of ATF4 half-life,ATF4,~ 2 fold
same,inhibition of hERG activity,hERG,no inhibition
same,IC50,[12],341 nM and 340 nM
same,half-life of free fisetin,[13],very short half-life
same,maintenance of GSH levels in the presence of oxidative stress,nerve cell,able to maintain GSH levels
same,extracellular Aβ toxicity,HT22 cells,prevents extracellular Aβ toxicity
same,IC50,COX1 (Human platelets),> 10000 nM
same,inhibition of cytochrome P450 2C9 activity,cytochrome P450 2C9,no inhibitory effects
same,leukocytes infiltrating the brain,"tMCAO in mice [14]; 50 mg/kg bw, day 3, mean ± SD, placebo 179,252 ± 23,389","93,045 ± 46,963 cells per ischemic hemisphere"
same,numbers of microglia in the ipsilesional hemisphere,"tMCAO in mice [14]; 50 mg/kg bw, day 3 after stroke, vs placebo",no significant differences
same,intracellular TNF-α production in macrophages,"tMCAO in mice [14]; day 3, placebo 24.6%",2.9%
same,TNF-α–producing microglia,"tMCAO in mice [14]; day 3, placebo 30.4%",17.3%
same,TNF-α–producing microglia,"tMCAO in mice [14]; day 7, placebo 31.9%",26.8%
same,intracellular TNF-α production in macrophages,"tMCAO in mice [14]; day 7, placebo 33.8%",13.9%
same,TNF-α production in macrophages and DCs isolated from spleen,"tMCAO in mice [14]; day 3 and day 7 post ischemia, vs placebo",did not show any differences
same,inhibition of monoamine oxidase A,monoamine oxidase A,mild inhibition
same,inhibition of 12-LOX activity,12-LOX,effective inhibitor
same,t1/2 of free fisetin in serum,[15],3.12 h
same,reduction in the ability of fisetin to maintain cellular GSH levels,"[16]; siRNA to ATF4, basal and glutamate-induced oxidative stress conditions",~ 50%
same,effect of Nrf2 reduction on the ability of fisetin to maintain GSH levels,"[16]; siRNA to Nrf2, basal conditions",no effect
same,reduction in the ability of fisetin to maintain GSH,"[16]; siRNA to Nrf2, in the presence of oxidative stress",~ 30%
same,"LPS-induced nitric oxide production, TNF-α, PGE2 and iNOS/COX2 expression",[17],blocked
same,proteasome activity,proteasome,increase proteasome activity
same,protection of cells,PC12/Htt^Q103 cells,equal or greater amount of protection
same,inhibition of 15-LOX activity,15-LOX,effective inhibitor
same,concentration at which pro-oxidant effects are seen,[18],≥ 50 µM
same,concentration decreasing lipid peroxidation,liver microsomes,1.35 µM
same,EC50,[19],3000 nM
same,inhibition of cytochrome P450 3A4 activity,cytochrome P450 3A4,no inhibitory effects
same,most effective dose at reducing immobility time,[20],20 mg/kg bw
same,IC50,COX2 (Human recombinant),> 10000 nM
same,NF-κB-dependent reporter gene expression and protein expression,[21],reduced
same,p38 MAPK and JNK activation,RAW264.7 macrophages,suppresses
